Each molecule was assayed against wild-type human cardiac sodium channel, hNav1.5 (Homo sapiens, UniProt Q14524) (assay: Late INa screening assay (automated whole cell patch clamp, PatchXpress)). Settings: compound at 1 μM; HEK293 cells expressing hNav1.5; late INa generated with 10 μM Tefluthrin (or 50 nM ATX II); read-out: LateINa_1 uM (percent block of late INa).
Sequence of wild-type human cardiac sodium channel, hNav1.5 (Q14524 whole entry): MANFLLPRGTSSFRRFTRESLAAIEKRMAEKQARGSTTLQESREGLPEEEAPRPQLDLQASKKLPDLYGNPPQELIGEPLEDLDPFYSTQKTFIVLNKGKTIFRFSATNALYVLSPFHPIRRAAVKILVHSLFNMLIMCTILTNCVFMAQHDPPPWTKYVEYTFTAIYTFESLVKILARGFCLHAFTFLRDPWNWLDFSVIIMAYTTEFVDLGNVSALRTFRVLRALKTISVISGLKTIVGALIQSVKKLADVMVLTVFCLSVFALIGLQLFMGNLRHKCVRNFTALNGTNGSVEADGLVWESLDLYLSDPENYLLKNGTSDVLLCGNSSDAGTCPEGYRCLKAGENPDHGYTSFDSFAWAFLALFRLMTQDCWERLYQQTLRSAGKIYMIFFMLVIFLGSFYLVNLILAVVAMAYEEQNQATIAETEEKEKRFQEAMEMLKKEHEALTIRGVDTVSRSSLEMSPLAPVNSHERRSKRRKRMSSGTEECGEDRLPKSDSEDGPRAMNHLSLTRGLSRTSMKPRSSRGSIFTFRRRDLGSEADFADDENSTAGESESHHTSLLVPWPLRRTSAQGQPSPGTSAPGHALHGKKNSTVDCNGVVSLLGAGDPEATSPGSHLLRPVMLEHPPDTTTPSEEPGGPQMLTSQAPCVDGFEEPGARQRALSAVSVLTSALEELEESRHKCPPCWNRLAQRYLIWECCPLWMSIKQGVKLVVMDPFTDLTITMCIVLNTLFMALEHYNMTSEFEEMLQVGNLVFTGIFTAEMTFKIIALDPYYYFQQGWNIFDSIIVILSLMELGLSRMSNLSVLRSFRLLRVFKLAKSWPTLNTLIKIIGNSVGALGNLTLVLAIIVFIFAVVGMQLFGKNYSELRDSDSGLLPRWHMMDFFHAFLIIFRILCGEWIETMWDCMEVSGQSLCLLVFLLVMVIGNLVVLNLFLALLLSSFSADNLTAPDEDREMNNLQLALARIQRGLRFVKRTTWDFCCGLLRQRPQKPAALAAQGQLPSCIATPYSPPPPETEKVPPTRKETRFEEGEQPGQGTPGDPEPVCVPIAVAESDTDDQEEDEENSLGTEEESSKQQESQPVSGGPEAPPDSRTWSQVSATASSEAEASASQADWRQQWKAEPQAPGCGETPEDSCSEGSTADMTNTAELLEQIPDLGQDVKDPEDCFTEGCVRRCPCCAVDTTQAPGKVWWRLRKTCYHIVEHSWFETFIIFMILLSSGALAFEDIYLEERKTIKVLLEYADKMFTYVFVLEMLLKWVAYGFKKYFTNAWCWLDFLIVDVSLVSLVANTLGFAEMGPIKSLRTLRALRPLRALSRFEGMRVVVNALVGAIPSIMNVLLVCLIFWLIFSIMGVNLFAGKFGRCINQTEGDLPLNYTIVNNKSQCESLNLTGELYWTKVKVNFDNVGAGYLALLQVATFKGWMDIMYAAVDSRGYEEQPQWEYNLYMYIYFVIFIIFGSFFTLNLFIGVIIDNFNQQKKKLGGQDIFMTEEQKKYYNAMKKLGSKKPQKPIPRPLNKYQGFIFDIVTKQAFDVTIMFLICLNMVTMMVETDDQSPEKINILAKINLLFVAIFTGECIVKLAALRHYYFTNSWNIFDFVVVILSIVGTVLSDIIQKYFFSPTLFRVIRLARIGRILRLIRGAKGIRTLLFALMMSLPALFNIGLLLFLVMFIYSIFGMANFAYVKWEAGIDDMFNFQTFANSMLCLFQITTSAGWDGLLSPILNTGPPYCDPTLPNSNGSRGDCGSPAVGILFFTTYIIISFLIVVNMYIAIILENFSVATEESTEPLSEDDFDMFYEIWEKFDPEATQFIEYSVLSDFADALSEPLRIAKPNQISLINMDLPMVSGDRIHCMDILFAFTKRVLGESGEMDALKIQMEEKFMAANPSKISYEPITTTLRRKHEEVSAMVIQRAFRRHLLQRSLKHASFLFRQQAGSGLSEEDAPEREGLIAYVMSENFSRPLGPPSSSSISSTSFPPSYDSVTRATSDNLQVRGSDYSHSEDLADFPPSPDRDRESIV
Format: cell-based
How it was run: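 Late sodium current through wild-type human hNav1.5 stably expressed in HEK293 cells (no beta subunits) was recorded by automated whole-cell patch clamp on a PatchXpress 7000A at 24-27° C. Late INa was induced with 10 μM Tefluthrin or 50 nM ATX II. Cells were stepped from −120 mV to −20 mV for 250 ms at 0.1 Hz, and percent block was normalized to current in Na-free extracellular solution.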
In the case of `FC(F)(F)c1nnc2ccc(-c3cccc4ccccc34)cn12` [BHN-120, 6-(naphthalen-1-yl)-3-(trifluoromethyl)[1,2,4]triazolo[4,3-a]pyridine], the inhibition at 1 µM was 20.4%.
In the case of `COCC(F)(F)c1nnc2ccc(-c3ccc(Oc4ccccc4)cc3)cn12` [BHN-136, 3-(1,1-difluoro-2-methoxyethyl)-6-(4-phenoxyphenyl)[1,2,4]triazolo[4,3-a]pyridine], the inhibition at 1 µM was 45%.
In the case of `FC(F)(F)c1nnc2ccc(-c3ccc(OC4CC4)cc3)cn12` [BHN-102, 6-[4-(cyclopropyloxy)phenyl]-3-(trifluoromethyl)[1,2,4]triazolo[4,3-a]pyridine], the inhibition at 1 µM was 45.5%.
Molecule `Fc1cccc(F)c1CCOC(F)(F)c1nnc2ccc(-c3ccc(OC(F)(F)F)cc3)cn12` [BHN-322, 3-{[2-(2,6-difluorophenyl)ethoxy](difluoro)methyl}-6-[4-(trifluoromethoxy)phenyl][1,2,4]triazolo[4,3-a]pyridine] has an inhibition at 1 µM of 72.5%.
For `FC(F)(F)Oc1ccc(-c2ccc3nnc(C(F)(F)OCc4cccnn4)n3c2)cc1` [BHN-216, 3-[difluoro(pyridazin-3-ylmethoxy)methyl]-6-[4-(trifluoromethoxy)phenyl][1,2,4]triazolo[4,3-a]pyridine], the inhibition at 1 µM was 26.1%.
For `CSc1ccc(-c2ccc3cnc(C(F)(F)F)n3c2)cn1` [BHN-101, 6-[6-(methylsulfanyl)pyridin-3-yl]-3-(trifluoromethyl)imidazo[1,5-a]pyridine], the inhibition at 1 µM was 32.3%.
`N#Cc1cc(Cl)ccc1Nc1ccc(-c2ccc3nnc(C(F)(F)F)n3c2)cc1` [BHN-276, 5-chloro-2-({4-[3-(trifluoromethyl)[1,2,4]triazolo[4,3-a]pyridin-6-yl]phenyl}amino)benzonitrile] showed an inhibition at 1 µM of 16.2%.
`CCOC(=O)c1cccc(-c2nnc3ccc(-c4ccc(OC(F)(F)F)cc4)cn23)c1` [BHN-87, ethyl 3-{6-[4-(trifluoromethoxy)phenyl][1,2,4]triazolo[4,3-a]pyridin-3-yl}benzoate] gave an inhibition at 1 µM of 38.9%.
Molecule `FC(F)(F)Oc1ccc(-c2ccc3nnc(C(F)(F)OCc4ccccc4-c4ccc(C5CC5)nc4)n3c2)cc1` [BHN-325, 3-[{[2-(6-cyclopropylpyridin-3-yl)benzyl]oxy}(difluoro)methyl]-6-[4-(trifluoromethoxy)phenyl][1,2,4]triazolo[4,3-a]pyridine] has an inhibition at 1 µM of 68.3%.
`FC(F)(F)COc1ccc(-c2ccc3nnc(C(F)(F)F)n3n2)cn1` [BHN-221, 6-[6-(2,2,2-trifluoroethoxy)pyridin-3-yl]-3-(trifluoromethyl)[1,2,4]triazolo[4,3-b]pyridazine] was tested, and the inhibition at 1 µM was 55%.
`FC(F)(F)Oc1ccc(-c2ccc3nnc(C(F)(F)OCC4CC4(F)F)n3c2)cc1` (centres unmarked) [BHN-294, 3-{[(2,2-difluorocyclopropyl)methoxy](difluoro)methyl}-6-[4-(trifluoromethoxy)phenyl][1,2,4]triazolo[4,3-a]pyridine] was tested, and the inhibition at 1 µM was 77.6%.
Work on `FC(F)(F)c1nnc2ccc(-c3ccc(Oc4ccc(Cl)cc4)cc3)nn12` [BHN-236, 6-[4-(4-chlorophenoxy)phenyl]-3-(trifluoromethyl)[1,2,4]triazolo[4,3-b]pyridazine] yielded an inhibition at 1 µM of 40%.
`N#CCOCc1c(-c2ccc(OC(F)(F)F)cc2)ccc2nnc(C(F)(F)F)n12` [BHN-279, ({6-[4-(trifluoromethoxy)phenyl]-3-(trifluoromethyl)[1,2,4]triazolo[4,3-a]pyridin-5-yl}methoxy)acetonitrile] showed an inhibition at 1 µM of 19.1%.
With `FC1(F)CCN(c2nnc3ccc(-c4ccc(OC(F)(F)F)cc4)cn23)CC1` [BHN-260, 3-(4,4-difluoropiperidin-1-yl)-6-[4-(trifluoromethoxy)phenyl][1,2,4]triazolo[4,3-a]pyridine] the inhibition at 1 µM was 38.5%.

Same assay, conditions: compound at 10 μM; HEK293 cells expressing hNav1.5; late INa generated with 10 μM Tefluthrin (or 50 nM ATX II); read-out: LateINa_10 uM (percent block of late INa)
Molecule `FC(F)c1nnc2cnc(-c3ccc(Oc4ccccc4)cc3)cn12` [BHN-18, 3-(difluoromethyl)-6-(4-phenoxyphenyl)[1,2,4]triazolo[4,3-a]pyrazine] has an inhibition at 10 µM of 54.6%.
Work on `CCOC(=O)c1cccc(-c2nnc3ccc(-c4ccc(OC(F)(F)F)cc4)cn23)c1` [BHN-87, ethyl 3-{6-[4-(trifluoromethoxy)phenyl][1,2,4]triazolo[4,3-a]pyridin-3-yl}benzoate] yielded an inhibition at 10 µM of 72.2%.
`COc1ccc(-c2ccc3nnc(-c4cccc(C#N)c4)n3n2)cc1` [BHN-45, 3-[6-(4-methoxyphenyl)[1,2,4]triazolo[4,3-b]pyridazin-3-yl]benzonitrile] showed an inhibition at 10 µM of 36.3%.

Source: patent US8952034B2, “Fused heterocyclic compounds as ion channel modulators” (Gilead Sciences, Inc., priority 2009, dated 2015)
